Data published in patent US12077503B2, “Substituted cyclic amides and their use as herbicides” (FMC CORPORATION, priority 2015, dated 2024).

Key:
Assay type in all cases: in vivo
Kochia (Kochia scoparia) [1] = experiment: Test A preemergence; conditions: Bassia scoparia, pre-emergence, 240 h
Method in brief: (§1)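 Preemergence soil spray on seeded pots or post-emergence spray on 1–2 leaf plants, in loam–sand blend. Greenhouse ~10 d. Visual rating 0–100 against untreated plants.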

[2] = test system: giant foxtail (Setaria faberii); experiment: Test A preemergence; conditions: Setaria faberi, pre-emergence, 240 h
Method in brief: as §1

[3] = test system: barnyardgrass (Echinochloa crus-galli); experiment: Test A preemergence; conditions: Echinochloa crus-galli, pre-emergence, 240 h
Method in brief: as §1

[4] = test system: ragweed (common ragweed, Ambrosia elatior); experiment: Test A preemergence; conditions: Ambrosia artemisiifolia, pre-emergence, 240 h
Method in brief: as §1

[5] = test system: pigweed (Amaranthus retroflexus); experiment: Test A preemergence; conditions: Amaranthus retroflexus, pre-emergence, 240 h
[6] = test system: ryegrass, Italian (Italian ryegrass, Lolium multiflorum); experiment: Test A preemergence; conditions: Lolium multiflorum, pre-emergence, 240 h
Method in brief: as §1

[7] = test system: blackgrass (Alopecurus myosuroides); experiment: Test A postemergence; conditions: Alopecurus myosuroides, post-emergence, 240 h, 125 g ai/ha, Postemergence; visual injury after approximately 10 d; 0 to 100 scale where 0 is no effect and 100 is complete control; read-out: Plant response rating, Blackgrass
Method in brief: as §1

Kochia (Kochia scoparia) [8] = experiment: Test A postemergence; conditions: Bassia scoparia, post-emergence, 240 h, 125 g ai/ha, Postemergence; visual injury after approximately 10 d; 0 to 100 scale where 0 is no effect and 100 is complete control; read-out: Plant response rating, Kochia
Method in brief: as §1

corn (Zea mays) = experiment: Test A postemergence; conditions: Zea mays, post-emergence, 240 h, 125 g ai/ha, Postemergence; visual injury after approximately 10 d; 0 to 100 scale where 0 is no effect and 100 is complete control
Method in brief: as §1

[9] = test system: giant foxtail (Setaria faberii); experiment: Test A postemergence; conditions: Setaria faberi, post-emergence, 240 h, 125 g ai/ha, Postemergence; visual injury after approximately 10 d; 0 to 100 scale where 0 is no effect and 100 is complete control; read-out: Plant response rating, Foxtail, Giant
Method in brief: as §1

[10] = test system: barnyardgrass (Echinochloa crus-galli); experiment: Test A postemergence; conditions: Echinochloa crus-galli, post-emergence, 240 h, 125 g ai/ha, Postemergence; visual injury after approximately 10 d; 0 to 100 scale where 0 is no effect and 100 is complete control; read-out: Plant response rating, Barnyardgrass
Method in brief: as §1

[11] = test system: ragweed (common ragweed, Ambrosia elatior); experiment: Test A postemergence; conditions: Ambrosia artemisiifolia, post-emergence, 240 h, 125 g ai/ha, Postemergence; visual injury after approximately 10 d; 0 to 100 scale where 0 is no effect and 100 is complete control; read-out: Plant response rating, Ragweed
Method in brief: as §1

[12] = test system: pigweed (Amaranthus retroflexus); experiment: Test A postemergence; conditions: Amaranthus retroflexus, post-emergence, 240 h, 125 g ai/ha, Postemergence; visual injury after approximately 10 d; 0 to 100 scale where 0 is no effect and 100 is complete control; read-out: Plant response rating, Pigweed
Method in brief: as §1

[13] = test system: Galium (catchweed bedstraw, Galium aparine); experiment: Test A postemergence; conditions: Galium, post-emergence, 240 h, 125 g ai/ha, Postemergence; visual injury after approximately 10 d; 0 to 100 scale where 0 is no effect and 100 is complete control; read-out: Plant response rating, Galium
Method in brief: as §1

[14] = test system: ryegrass, Italian (Italian ryegrass, Lolium multiflorum); experiment: Test A postemergence; conditions: Lolium multiflorum, post-emergence, 240 h, 125 g ai/ha, Postemergence; visual injury after approximately 10 d; 0 to 100 scale where 0 is no effect and 100 is complete control; read-out: Plant response rating, Ryegrass, Italian
Method in brief: as §1

[15] = test system: wheat (Triticum aestivum); experiment: Test A postemergence; conditions: Triticum aestivum, post-emergence, 240 h, 125 g ai/ha, Postemergence; visual injury after approximately 10 d; 0 to 100 scale where 0 is no effect and 100 is complete control; read-out: Plant response rating, Wheat
Method in brief: as §1

rice (Oryra sativa) = experiment: Test B flooded paddy test; conditions: Oryza sativa, Flood, 250 g ai/ha; scale of 0 to 100 where 0 is no effect and 100 is complete control; read-out: Rice plant response rating
Method in brief: (§2)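 Response scored visually against untreated controls, 0 = no effect and 100 = complete control, 13–15 d after treatment in the greenhouse. Compounds added to paddy water held 3 cm above soil surface. Treatment given at 2-leaf stage.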

[16] = test system: sedge, umbrella (small-flower umbrella sedge, Cyperus difformis); experiment: Test B flooded paddy test; conditions: Cyperus difformis, Flood, 250 g ai/ha; scale of 0 to 100 where 0 is no effect and 100 is complete control; read-out: Sedge, Umbrella plant response rating
Method in brief: as §2

[17] = test system: barnyardgrass (Echinochloa crus-galli); experiment: Test B flooded paddy test; conditions: Echinochloa crus-galli, Flood, 250 g ai/ha; scale of 0 to 100 where 0 is no effect and 100 is complete control; read-out: Barnyardgrass plant response rating
Method in brief: as §2

[18] = test system: ducksalad (Heteranthera limosa); experiment: Test B flooded paddy test; conditions: Heteranthera limosa, Flood, 250 g ai/ha; scale of 0 to 100 where 0 is no effect and 100 is complete control; read-out: Ducksalad plant response rating
Method in brief: as §2

With `COc1ccc([C@H]2CN(C)C(=O)[C@@H]2C(=O)Nc2ccccc2F)cc1C(F)(F)F` [Compound 984] as the compound, how does the pest or weed control at 125 g/ha (Kochia (Kochia scoparia) [1]; 125 g ai/ha, Preemergence, visual injury rating after approximately 10 d, read-out: Kochia plant response rating (0 to 100 scale, 0 is no effect, 100 is complete control)) read?
The pest or weed control at 125 g/ha was 90%.

What about the pest or weed control at 500 g/ha (Kochia (Kochia scoparia) [1]; 500 g ai/ha, preemergence, visual injury rating about 10 d after treatment, 0 to 100 scale (0 no effect, 100 complete control), read-out: Kochia plant response rating) of the same compound?
Its pest or weed control at 500 g/ha is 90%.

What about the pest or weed control at 125 g/ha ([2]; 125 g ai/ha, Preemergence, visual injury rating after approximately 10 d, read-out: Foxtail, Giant plant response rating (0 to 100 scale, 0 is no effect, 100 is complete control)) of the same compound?
Its pest or weed control at 125 g/ha is 100%.

And the pest or weed control at 500 g/ha ([2]; 500 g ai/ha, preemergence, visual injury rating about 10 d after treatment, 0 to 100 scale (0 no effect, 100 complete control), read-out: Foxtail, Giant plant response rating)?
The pest or weed control at 500 g/ha was 100%.

And the pest or weed control at 125 g/ha ([3]; 125 g ai/ha, Preemergence, visual injury rating after approximately 10 d, read-out: Barnyardgrass plant response rating (0 to 100 scale, 0 is no effect, 100 is complete control))?
Its pest or weed control at 125 g/ha is 100%.

And the pest or weed control at 500 g/ha ([3]; 500 g ai/ha, preemergence, visual injury rating about 10 d after treatment, 0 to 100 scale (0 no effect, 100 complete control), read-out: Barnyardgrass plant response rating)?
The pest or weed control at 500 g/ha was 100%.

What about the pest or weed control at 125 g/ha ([4]; 125 g ai/ha, Preemergence, visual injury rating after approximately 10 d, read-out: Ragweed plant response rating (0 to 100 scale, 0 is no effect, 100 is complete control)) of the same compound?
Its pest or weed control at 125 g/ha is 0%.

And the pest or weed control at 500 g/ha ([4]; 500 g ai/ha, preemergence, visual injury rating about 10 d after treatment, 0 to 100 scale (0 no effect, 100 complete control), read-out: Ragweed plant response rating)?
Its pest or weed control at 500 g/ha is 30%.

And the pest or weed control at 125 g/ha ([5]; 125 g ai/ha, Preemergence, visual injury rating after approximately 10 d, read-out: Pigweed plant response rating (0 to 100 scale, 0 is no effect, 100 is complete control))?
The pest or weed control at 125 g/ha was 40%.

What about the pest or weed control at 500 g/ha ([5]; 500 g ai/ha, preemergence, visual injury rating about 10 d after treatment, 0 to 100 scale (0 no effect, 100 complete control), read-out: Pigweed plant response rating) of the same compound?
Its pest or weed control at 500 g/ha is 60%.

And the pest or weed control at 125 g/ha ([6]; 125 g ai/ha, Preemergence, visual injury rating after approximately 10 d, read-out: Ryegrass, Italian plant response rating (0 to 100 scale, 0 is no effect, 100 is complete control))?
Its pest or weed control at 125 g/ha is 70%.

And the pest or weed control at 500 g/ha ([6]; 500 g ai/ha, preemergence, visual injury rating about 10 d after treatment, 0 to 100 scale (0 no effect, 100 complete control), read-out: Ryegrass, Italian plant response rating)?
The pest or weed control at 500 g/ha was 30%.

What about the pest or weed control at 125 g/ha [7] of the same compound?
The pest or weed control at 125 g/ha was 30%.

What about the pest or weed control at 125 g/ha (Kochia (Kochia scoparia) [8]) of the same compound?
Its pest or weed control at 125 g/ha is 50%.

What about the Corn plant response rating (crop injury, 0 = no effect, 100 = complete kill) at 125 g/ha (corn (Zea mays)) of the same compound?
The Corn plant response rating (crop injury, 0 = no effect, 100 = complete kill) at 125 g/ha was 80%.

And the pest or weed control at 125 g/ha [9]?
Its pest or weed control at 125 g/ha is 90%.

What about the pest or weed control at 125 g/ha [10] of the same compound?
Its pest or weed control at 125 g/ha is 100%.

What about the pest or weed control at 125 g/ha [11] of the same compound?
The pest or weed control at 125 g/ha was 0%.

What about the pest or weed control at 125 g/ha [12] of the same compound?
The pest or weed control at 125 g/ha was 0%.

And the pest or weed control at 125 g/ha [13]?
Its pest or weed control at 125 g/ha is 30%.

And the pest or weed control at 125 g/ha [14]?
The pest or weed control at 125 g/ha was 20%.

What about the plant injury at 125 g/ha [15] of the same compound?
The plant injury at 125 g/ha was 20%.

And the pest or weed control at 250 g/ha (rice (Oryra sativa))?
Its pest or weed control at 250 g/ha is 15%.

And the pest or weed control at 250 g/ha [16]?
The pest or weed control at 250 g/ha was 0%.

And the pest or weed control at 250 g/ha [17]?
The pest or weed control at 250 g/ha was 55%.

What about the pest or weed control at 250 g/ha [18] of the same compound?
The pest or weed control at 250 g/ha was 85%.
